# Entries after “also recorded” stand apart in the source; their conditions may differ.
# Tests used:
# [1] = test system: LS513 multi-drug resistant colon carcinoma cells; test: LS513 multi-drug resistant colon carcinoma xenograft in SCID mice, combination with CPT-11 (2.8); assay type: in vivo, human cells in mice; details: SEQ ID NO:1 10 mg/kg i.v. every other day, CPT-11 20 mg/kg/day i.p. 5 days
# Procedure: BxPC-3 is a gemcitabine resistant call line. […] Gemcitabine was administered intravenously every three days at a dose of 100 mg/kg. Antitumour activities were estimated by the inhibition of tumour volume, which was measured with caliper. Each point represents mean tumour volume calculated from 10 animals per experimental group. […] Hela S3 is a hydroxyurea resistant cell line. […] Hydroxyurea was administered intraperitoneally every day at a dose of 250 mg/kg for 10 days. Cisplatin was administered intravenously once a week for three weeks at a dose of 4 mg/kg. Antitumour activities were estimated by the inhibition of tumour volume, which was measured with caliper. Each point represents mean tumour volume calculated from 10 animals per experimental group. […] Cisplatin was administered intravenously once a week for three weeks at a dose of 4 mg/kg. Taxol was administered intravenously once a week for three weeks at a dose of 10 mg/kg. Antitumour activities were estimated by the inhibition of tumour volume, which was measured with caliper. Each point represents mean tumour volume calculated from 10 animals per experimental group. […] Taxol was administered i.p. once a week at a dose of 10 mg/kg. Antitumour activities were estimated by the inhibition of tumour volume (FIG. 12A), which was measured with calipers. Each point represents mean tumour volume calculated from 10 animals per experimental group. […] Antitumour activities were estimated by the inhibition of tumour volume, which was measured with caliper. Each point represents mean tumour volume calculated from 9-10 animals per experimental group. […] Antitumour activities were estimated by the inhibition of tumour volume, which was measured with caliper. Each point represents mean tumour volume calculated from 10 animals per experimental group. […] Anti-tumour activity was estimated by the inhibition of tumour volume, which was measured with caliper. Each point represents mean tumour volume calculated from 10 animals per experimental group. […] Antitumour activities were estimated by the inhibition of tumour volume, which was measured with caliper. […]
# [2] = test system: SK-OV-3 human ovarian cancer cells; test: SK-OV-3 ovary tumour growth in Balb/c nude mice (3.4); assay type: in vivo, human cells in mice
# Procedure: Treatments lasted for 14 days thereafter. Antitumour activities were estimated by the inhibition of tumour volume, which was measured with a caliper on four different occasions over the treatment period. Each point represents mean tumour volume calculated from 5 animals per experimental group. […] Control animals (control) received saline alone for the same period. At the end of the treatments, the animals were sacrificed, tumours were excised and their weights were measured. Each bar represents mean tumour weight calculated from 6 animals per experimental group. […] Treatments lasted for 24 days thereafter. Antitumour activities were estimated by the inhibition of tumour volume, which was measured with a caliper at two-day intervals over the treatment period. Each point represents mean tumour volume calculated from 4 animals per experimental group. […] Treatments lasted for 24 days thereafter. Antitumour activities were estimated by the inhibition of tumour volume, which was measured with a caliper at two-day intervals over the treatment period. Each point represents mean tumour volume calculated from 4 animals per experimental group. […] Each point represents mean tumour volume calculated from 5 animals per experimental group. […] Antitumour activities were estimated by the inhibition of tumour volume, which was measured with a caliper on four different occasions over 16-day period. Each point represents mean tumour volume calculated from 5 animals per experimental group. […] Antitumour activities were estimated by the inhibition of tumour volume, which was measured with a caliper at two-day intervals over the treatment period. Each point represents mean tumour volume calculated from 5 animals per experimental group. […] Antitumour activities were estimated by the inhibition of tumour volume, which was measured with a caliper at various time intervals over the span of 30 days. Each point represents mean tumour volume calculated from 6 animals per experimental group. […] Antitumour activities were estimated by the inhibition of tumour volume, which was measured with a caliper. […]
substance,measurement,setting,value
"5′-GGCTAAATCGCTCCACCAAG-3′ (all phosphorothioate, sugars by position and methylation of C not given here) [SEQ ID NO: 1, fully phosphorothioated antisense oligonucleotide that hybridizes to the coding region of R2 mRNA]",Tumour weight as % of saline control,"[1]; LS513 (colon) multi-drug resistant (CPT-11 sensitive), SCID",49%
same,Antitumour effect (FIG. 16),"[1]; LS513, SCID mice",significant delay of tumour growth compared to saline control; also recorded: as effective as CPT-11
same,Inhibition of tumour weight,[2]; Human Ovary Adenocarcinoma,tumour weight of approximately 50%
same,Inhibition of tumour size,"[2]; Human Ovary Adenocarcinoma in Balb/c Nu-Nu mice, Days 19 to 25 after tumour implantation",Inhibition of tumour size by approximately 35%
same,"Inhibitory effect on tumour growth (tumour volume, FIG. 18C)","[2]; SK-OV-3, Balb/c nude mice, 10 mg/kg i.v. every other day, 22 days",statistically significant inhibitory effects on the growth of human ovary adenocarcinoma cells
